From ChEMBL document CHEMBL3832077, “DailyMed|setid=dc3d3905-2f08-4b71-b949-53f49fb3ea10 | METRONIDAZOLE- metronidazole tablet|Lake Erie Medical DBA Quality Care Products LLC”

How the values were obtained:
[1] = (§1) Evaluation of pharmacokinetic parameters for Metronidazole following oral administration of Metronidazole tablets; assay type: ADME, organism-based; design: dose 250 mg, dose 2000 mg, dose 500 mg, route oral; details: human, in vivo, dosed compound id 31, dosed compound name METRONIDAZOLE, tissue Plasma
Homo sapiens = experiment: as §1; assay type: ADME, organism-based; design: dose 250 mg, dose 2000 mg, dose 500 mg, route oral; details: in vivo, po, dosed compound id 31, dosed compound name METRONIDAZOLE, tissue Plasma

Tmax [1]: 1 to 2 h
CL_renal (Homo sapiens): 10 mL/min/1.73 m2
Compound: Cc1ncc([N+](=O)[O-])n1CCO [METRONIDAZOLE]
